Measured values from paper PMC8766756, “Insights on Cancer Cell Inhibition, Subcellular Activities, and Kinase Profile of Phenylacetamides Pending 1H-Imidazol-5-One Variants” (Frontiers in Pharmacology, 2022).
Like-named read-outs stand apart in the source and are kept apart here.

What was measured:
[1] = test system: MCF7 breast cancer cell line; assay: SRB cytotoxicity assay; format: cell-based, human; details: MCF7, SRB, 72 h, read-out: IC50 ± SEM MCF7
Experimental: (§1) The compounds were screened for their anticancer activities against a variety of cancer cell lines. The cytotoxic effect of the compounds was evaluated using the sulforhodamine B (SRB) cytotoxicity assay for breast cancer line (MCF7) and prostate cancer cell line (PC3) ([Vichai and Kirtikara, 2006]; [Rana et al., 2021]) and 3-(4,5-dimethylthiazol-2-yl)-2,5-diphenyl-2H-tetrazolium bromide (MTT) assay for the colon cancer (HCT116) cell lines ([El-Huneidi et al., 2020]). The CellTiter-Blue® cell viability assay was performed on the various leukemia cell lines, HL60, NB4, and KG1a cells ([Akter et al., 2019]). The IC50 values are illustrated in Table 1.
(§2) MCF7 (breast), PC3 (prostate), and HCT116 (colon) cancer cell lines were obtained from ATCC, Manassas, VA, USA. Cells were grown in Roswell Park Memorial Institute-1640 (RPMI-1640) medium (Thermo Fisher Scientific, Inc., Waltham, MA, USA), supplemented with 10% heat inactivated fetal bovine serum (FBS), 50 units/mL of penicillin, and […] of streptomycin and maintained at 37°C in a humidified atmosphere containing 5% CO2. The cells were maintained as “monolayer culture” by serial subculturing.
(§3) Exponentially growing MCF7 and PC3 cells were collected using 0.25% Trypsin-EDTA and were then seeded in 96-well plates at a density of 1,000–2,000 cells/well in 10% FBS and penicillin/streptomycin supplemented RPMI-1640 medium. After 24 h, the cells were treated with different concentrations of the test compounds and incubated for 72 h at 37°C in a humidified atmosphere containing 5% CO2. Next, the cells were fixed by trichloroacetic acid (TCA) (10% final concentration in wells) directly to the wells and incubated for 1 h at 4°C, then the cells were washed with distilled water five times to remove excess TCA, media, serum proteins, and metabolites, followed by air drying. After that, the fixed cells were stained with 0.4% SRB dissolved in 1% acetic acid for 10 min at room temperature, and excess stain was removed by quickly rinsing with 1% acetic acid. The residual acetic acid was removed completely by air drying the plates for 24 h, and the dye was solubilized with Tris buffer (pH = 7.4, 10 mM) for 5 min on a shaker at 1,600 rpm. The optical density of each well was measured spectrophotometrically at 564 nm with an ELISA microplate reader (ChroMate-4300, FL, USA). The IC50 values were calculated according to the equation for Boltzman sigmoidal concentration–response curve using the nonlinear regression fitting models (GraphPad®, Prism Version 5).

[2] = test system: PC3 prostate cancer cell line; assay: SRB cytotoxicity assay; format: cell-based, human; details: 72 h, read-out: IC50 ± SEM PC3
Experimental: as §1, §2, §3

[3] = test system: HCT116 colon cancer cell line; assay: MTT antiproliferative assay; format: cell-based; details: Homo sapiens, HCT-116
Experimental: as §1, §2
The test compounds were evaluated for antiproliferative activity using the MTT viability assay against the HCT116 cell line. The cells were seeded in triplicate in 96-well plates at a density of 10 × 10^3 cells/mL in a total volume of 200 µL per well. 0.1% of DMSO was used as a vehicle control. Each well was treated with 2 µL of test compound, which had been preprepared as stock solutions in ethanol to furnish the concentration range of the study, 0.1–50 μM, and re-incubated for a further 72 h at 37°C in a humidified atmosphere containing 5% CO2. The culture medium was then removed, and the cells were washed with 100 µL of PBS, and 100 µL of MTT was added, to reach a final concentration of 1 mg/ml of MTT. The cells were incubated for 3 h in darkness at 37°C. After removal of MTT solution, solubilization was initiated through the addition of […] of DMSO, and the cells were maintained at room temperature in darkness for 20 min to ensure thorough color diffusion before reading the absorbance with a microplate reader at 570 nm. The results were expressed as percentage viability relative to vehicle control (100%). The dose–response curves were plotted, and the IC50 values (concentration of drug resulting in 50% reduction in cell survival) were obtained using the commercial software package Prism (GraphPad® Software, Inc., La Jolla, CA, USA). All the experiments were repeated in at least three independent experiments.

HL60 cells = assay: Cell cycle analysis by flow cytometry; format: cell-based, human; details: HL60, 1 µM, 48 h, vs untreated control
Experimental: The cell cycle analysis of the HL60 cells after treatment was performed with 1 µM of KIM-161 by using flow cytometry.
The cells (3.5 × 10^5/well) were incubated with 1 µM 4c (KIM-161) at 37°C for 48 h. Subsequently, the cells were collected and washed twice with ice-cold PBS (1X). The washed cells were fixed on ice for 20 min using a fixation buffer containing paraformaldehyde. Hoechst 33342 (10 μg/ml; Thermo Fisher Scientific, Inc.) was used for staining. The cells were then incubated in the dark for 30 min on ice. A minimum total of 20,000 events were acquired using a BD FACSAria III flow cytometer. Flowlogic version 7.2.1 software (Inivai Technologies, Victoria, Australia) was used to obtain the percentages of cells in the G1, S, and G2/M phases in the singlet-gated population.

[4] = Stability in mouse liver microsomes; format: in vitro ADME
Experimental: The clearance of KIM-161 in MLM or HLM was determined at 37°C as previously described ([Yang et al., 2007]). Both MLM and HLM were obtained from Merck KGaA (Darmstadt, Germany), Cat. No. M9441 (MLM) and M0317 (HLM). The assays were conducted in triplicate in 96-well deep polypropylene plates. […] At five time points, the reaction mixture aliquots were transferred to 96-shallow well stop plates on ice containing acetonitrile with 0.1 µM propafenone. […] The standard curves for the test compound were generated using five concentrations in triplicate that were processed as above but with zero incubation time. The stop plates were centrifuged at 2000g for 10 min, and then, the supernatant aliquots were transferred to a Waters Aquity® UPLC 700 µL 96-well sample plate with cap mat (Waters, Milford, MA). The amount of the compound remaining in the supernatant was quantified by LC/MS/MS using a Waters Xevo TQ MS (electrospray positive mode) coupled to a Waters Aquity® UPLC (BEH column, C18). Propafenone was used as the internal standard. GraphPad® Prism v.5.04 was used for nonlinear fitting of time course data to generate t1/2 values.

Compound `COc1ccc(/C=C2\N=C(C)N(c3ccc(CC(=O)NCc4ccccc4)cc3)C2=O)cc1` [Compound 4c, (Z)-N-Benzyl-2-(4-(4-(4-methoxybenzylidene)-2-methyl-5-oxo-4,5-dihydro-1H-imidazol-1-yl)phenyl)acetamide] has an IC50 ([1]; Homo sapiens, MCF7, 72 h) of 1140 nM, an IC50 [1] of 1140 ± 190 nM and an IC50 [2] of 2140 ± 340 nM. It also gave an IC50 ([2]; Homo sapiens) of 2130 nM, an IC50 ([3]; HCT116, MTT, 72 h, read-out: IC50 ± SEM HCT116) of 294 nM and an IC50 ([3]; HCT116 colon cancer, abstract, read-out: cytotoxic IC50 HCT116) of 294 nM. For the same compound, the “Cell cycle distribution: G0/G1 phase” value (HL60 cells) was “decrease in the G0/G1 phase”, the “Cell cycle distribution: G2/M phase” value (HL60 cells) was “increased the population of cells in the G2/M phase” and the “Cell cycle distribution: PreG phase” value (HL60 cells) was “accumulate in PreG phase”. The “Cell cycle distribution: S phase” value (HL60 cells) was “no difference is seen in cell population in the S phase”, the MLM stability ([4]; mouse liver microsomes, 37°C, t1/2) was 14.8 min and the “% Remaining in MLM with NADPH” value ([4]; with NADPH, >60 min, listed as KIM-161) was “unchanged”. For the same compound, the “% Remaining in MLM without NADPH” value ([4]; without NADPH, >60 min, listed as KIM-161) was “Unchanged >60 min”.
